According to patent publication US20020187514A1 (priority 1999, published 2002):

Key:
Esterase = Esterase (Human); substrate Acetylthiocholine; format: biochemical
[1] = system: Adenosine Transport (cs + es); assay: Adenosine Transport (cs + es) (Human); [3H]-Adenosine; format: biochemical; conditions: 10^−5 M
Adrenergic, Alpha 2A = Adrenergic, Alpha 2A (Homo sapiens, UniProt P08913); assay: Adrenergic, Alpha 2A (Human); [3H]MK-912; format: binding; conditions: read-out: Pass 1 (10^−5 M) % Inhibition
Chain of Adrenergic, Alpha 2A (P08913 whole entry): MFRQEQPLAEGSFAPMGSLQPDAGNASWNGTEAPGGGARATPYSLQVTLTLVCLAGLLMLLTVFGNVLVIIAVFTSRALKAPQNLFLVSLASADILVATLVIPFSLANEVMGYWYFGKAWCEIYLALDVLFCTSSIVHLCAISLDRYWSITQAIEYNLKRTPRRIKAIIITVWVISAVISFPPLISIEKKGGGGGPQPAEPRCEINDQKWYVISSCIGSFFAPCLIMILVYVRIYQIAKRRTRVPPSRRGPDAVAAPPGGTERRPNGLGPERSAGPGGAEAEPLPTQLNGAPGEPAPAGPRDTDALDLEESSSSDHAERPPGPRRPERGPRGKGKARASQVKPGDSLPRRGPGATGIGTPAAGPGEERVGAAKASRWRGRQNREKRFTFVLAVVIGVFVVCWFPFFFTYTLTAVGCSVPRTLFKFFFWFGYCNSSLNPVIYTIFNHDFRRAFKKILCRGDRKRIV

Opiate, Kappa 1 = Opiate, Kappa 1 (UniProt P41144); format: binding
Chain of Opiate, Kappa 1 (P41144 whole entry): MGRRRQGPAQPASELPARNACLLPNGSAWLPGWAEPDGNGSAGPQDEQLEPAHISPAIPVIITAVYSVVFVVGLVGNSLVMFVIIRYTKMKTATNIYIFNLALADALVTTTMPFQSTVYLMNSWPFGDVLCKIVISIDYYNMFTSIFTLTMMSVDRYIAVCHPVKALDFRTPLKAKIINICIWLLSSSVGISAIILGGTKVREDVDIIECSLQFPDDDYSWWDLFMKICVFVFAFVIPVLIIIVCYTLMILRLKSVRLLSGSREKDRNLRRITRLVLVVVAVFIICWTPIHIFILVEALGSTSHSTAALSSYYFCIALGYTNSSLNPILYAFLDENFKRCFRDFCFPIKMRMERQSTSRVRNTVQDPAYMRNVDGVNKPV

Muscarinic, M5 = biological target: T1, Muscarinic, M5 (Homo sapiens, UniProt P08912); assay: biochemical; format: binding; conditions: read-out: Pass 1 (10^−5 M) % Inhibition
T1 construct: expressed in transfected cells

[2] = system: Glutamate, Chloride Dependent Site; assay: Glutamate, Chloride Dependent Site; [3H]Glutamic Acid; format: binding; conditions: 10^−5 M
Imidazoline, I2, central = assay: Imidazoline, I2, central; [3H]2-BFI; format: binding; conditions: 10^−5 M
Adrenergic, Alpha 1A = Adrenergic, Alpha 1A (UniProt P43140); assay: Adrenergic, Alpha 1A; [3H]-7-MeOxy-Prazosin; format: binding
[3] = system: Potassium Channel, Ca2+ Act., VI; assay: Potassium Channel, Ca2+ Act., VI; [125I]Apamin; format: binding; conditions: 10^−5 M
Serotonin Transporter = Serotonin Transporter (Rattus norvegicus, UniProt P31652); assay: biochemical; format: binding; conditions: read-out: % Inhibiton (10^−5 M)
Chain of Serotonin Transporter (P31652 whole entry): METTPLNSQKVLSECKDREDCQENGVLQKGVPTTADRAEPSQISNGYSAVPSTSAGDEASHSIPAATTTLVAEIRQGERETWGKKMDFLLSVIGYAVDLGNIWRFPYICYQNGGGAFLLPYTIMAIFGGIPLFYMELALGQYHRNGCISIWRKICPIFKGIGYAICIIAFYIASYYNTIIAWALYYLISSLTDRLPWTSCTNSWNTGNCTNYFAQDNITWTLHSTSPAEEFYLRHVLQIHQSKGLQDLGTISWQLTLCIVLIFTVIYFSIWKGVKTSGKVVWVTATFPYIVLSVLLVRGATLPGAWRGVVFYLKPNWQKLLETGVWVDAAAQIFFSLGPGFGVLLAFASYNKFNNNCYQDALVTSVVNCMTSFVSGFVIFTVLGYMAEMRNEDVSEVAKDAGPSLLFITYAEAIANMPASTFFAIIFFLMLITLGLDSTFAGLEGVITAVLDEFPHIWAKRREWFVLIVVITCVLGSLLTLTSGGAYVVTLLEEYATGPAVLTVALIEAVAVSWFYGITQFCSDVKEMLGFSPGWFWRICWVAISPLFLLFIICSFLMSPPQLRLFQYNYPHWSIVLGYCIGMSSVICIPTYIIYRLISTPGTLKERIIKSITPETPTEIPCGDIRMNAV

Purinergic, P2Y = Purinergic, P2Y (Human); [35S]-ATPas; format: binding; conditions: 10^−5 M
[4] = system: Choline Acetyltransferase; assay: Choline Acetyltransferase; substrate [14C]Acetyl Coenzyme; format: biochemical; conditions: 10^−5 M
Neurotensin = biological target: T2, Neurotensin (Homo sapiens, UniProt P30989); assay: biochemical; format: binding; conditions: read-out: Pass 1 (10^−5 M) % Inhibition
T2 construct: expressed in transfected cells

[5] = system: Glutamate, NMDA, Glycine (Stry-insens Site); format: binding; conditions: 10^−5 M
[6] = system: GABA, Chloride, TBOB Site; format: binding
[7] = system: Atrial Natriuretic Peptide, ANP A; assay: Atrial Natriuretic Peptide, ANP A; [125I]ANP (Rat); format: binding
[8] = system: Potassium Channel, Ca2+ Act., VS; assay: Potassium Channel, Ca2+ Act., VS; [125I]Charybdotoxin; format: binding; conditions: 10^−5 M
Serotonin, 5HT1D = Serotonin, 5HT1D (Homo sapiens, UniProt P28221); assay: biochemical; format: binding; conditions: read-out: Pass 1 (10^−5 M) % Inhibition
Chain of Serotonin, 5HT1D (P28221 whole entry): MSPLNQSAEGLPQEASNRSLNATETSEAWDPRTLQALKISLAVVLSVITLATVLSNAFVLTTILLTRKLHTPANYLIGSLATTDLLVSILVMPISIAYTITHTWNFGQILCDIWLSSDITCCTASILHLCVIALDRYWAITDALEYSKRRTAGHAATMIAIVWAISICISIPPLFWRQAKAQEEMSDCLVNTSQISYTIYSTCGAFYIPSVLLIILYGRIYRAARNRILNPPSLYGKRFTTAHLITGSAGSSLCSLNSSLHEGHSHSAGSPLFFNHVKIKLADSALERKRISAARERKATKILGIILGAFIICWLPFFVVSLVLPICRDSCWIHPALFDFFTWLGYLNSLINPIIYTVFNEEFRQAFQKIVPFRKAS

[9] = system: Glutamate, NMDA, Phencyclidine Site; assay: Glutamate, NMDA, Phencyclidine Site; [3H]TCP; format: binding; conditions: 10^−5 M
Angiotensin II, ATI = Angiotensin II, ATI (Homo sapiens, UniProt P30556); assay: Angiotensin II, ATI (Human); [125I]-(Sar1-Ile8) Angiotensin; format: binding; conditions: read-out: Pass 1 (10^−5 M) % Inhibition
Chain of Angiotensin II, ATI (P30556 whole entry): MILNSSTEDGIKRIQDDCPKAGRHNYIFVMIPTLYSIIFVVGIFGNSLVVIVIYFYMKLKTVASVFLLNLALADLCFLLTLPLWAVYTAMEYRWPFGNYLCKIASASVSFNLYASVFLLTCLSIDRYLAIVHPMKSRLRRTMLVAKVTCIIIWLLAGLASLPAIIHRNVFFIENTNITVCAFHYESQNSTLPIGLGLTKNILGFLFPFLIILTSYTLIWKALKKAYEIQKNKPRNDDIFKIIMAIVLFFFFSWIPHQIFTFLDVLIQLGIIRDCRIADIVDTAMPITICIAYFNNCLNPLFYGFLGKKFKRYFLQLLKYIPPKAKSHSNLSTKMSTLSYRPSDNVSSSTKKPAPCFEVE

Neurokinin, NK1 = format: binding; conditions: 10^−5 M
[10] = system: Cholecystokinin, CCK1 (CCKA); assay: Cholecystokinin, CCK1 (CCKA); [125I]CCK-8; format: binding; conditions: 10^−5 M
Thromboxane A2 = biological target: T3, Thromboxane A2 (Homo sapiens, UniProt P21731); assay: Thromboxane A2 (Human); [3H]SQ 29,548; format: binding; conditions: read-out: Pass 1 (10^−5 M) % Inhibition
T3 construct: from human cell lines; endogenous in cells

Melatonin = assay: Melatonin; [125I]-2-Iodomelatonin; format: binding; conditions: 10^−5 M
Dopamine, D5 = biological target: T4, Dopamine, D5 (Homo sapiens, UniProt P21918); assay: biochemical; format: binding; conditions: read-out: Pass 1 (10^−5 M) % Inhibition
T4 construct: expressed in transfected cells

[11] = system: Somatostatin, Non-selective; assay: Somatostatin, Non-selective; [125]-Somatostatin-14 (Tyr11); format: binding; conditions: 10^−5 M
[12] = biological target: Benzodiazepine, peripheral (Homo sapiens, UniProt P30536); assay: biochemical; format: binding; conditions: read-out: Pass 1 (10^−5 M) % Inhibition
Chain of Benzodiazepine, peripheral (P30536 whole entry): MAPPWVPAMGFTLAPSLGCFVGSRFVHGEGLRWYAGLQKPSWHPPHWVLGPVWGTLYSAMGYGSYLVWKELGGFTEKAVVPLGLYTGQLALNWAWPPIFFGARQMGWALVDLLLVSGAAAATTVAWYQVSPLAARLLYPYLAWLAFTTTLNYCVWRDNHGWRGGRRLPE

Adenosine Transport (es) = Adenosine Transport (es) (Homo sapiens, UniProt Q99808); assay: biochemical; conditions: read-out: Pass 1 (10^−5 M) % Inhibition
Chain of Adenosine Transport (es) (Q99808 whole entry): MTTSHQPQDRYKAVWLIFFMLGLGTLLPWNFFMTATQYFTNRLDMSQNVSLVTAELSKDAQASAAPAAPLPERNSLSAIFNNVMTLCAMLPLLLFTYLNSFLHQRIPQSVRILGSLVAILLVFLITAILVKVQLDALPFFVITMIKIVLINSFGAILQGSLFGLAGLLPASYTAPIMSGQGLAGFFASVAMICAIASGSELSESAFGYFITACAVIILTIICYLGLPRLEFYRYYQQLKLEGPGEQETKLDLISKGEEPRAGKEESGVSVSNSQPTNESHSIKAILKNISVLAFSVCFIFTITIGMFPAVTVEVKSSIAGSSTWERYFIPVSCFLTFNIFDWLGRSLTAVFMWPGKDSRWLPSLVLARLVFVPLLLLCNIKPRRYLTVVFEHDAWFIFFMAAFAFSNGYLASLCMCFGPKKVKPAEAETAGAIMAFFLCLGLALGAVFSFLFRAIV

Glutamate, AMPA Site = assay: Glutamate, AMPA Site; [3H]AMPA; format: binding; conditions: 10^−5 M
Serotonin, 5HT4 = biological target: T5, Serotonin, 5HT4 (Cavia porcellus, UniProt O70528); assay: biochemical; format: binding; conditions: read-out: Pass 1 (10^−5 M) % Inhibition
T5 construct: no other source notation after assay name denotes animal cell or animal tissue source; from tissue; host or cells: animal cell or animal tissue, not specified

GABA Transport = format: biochemical; conditions: 10^−5 M
Adenosine, A2 = Adenosine, A2 (UniProt P30543); assay: Adenosine, A2; [3H]CGS21680; format: binding
Chain of Adenosine, A2 (P30543 whole entry): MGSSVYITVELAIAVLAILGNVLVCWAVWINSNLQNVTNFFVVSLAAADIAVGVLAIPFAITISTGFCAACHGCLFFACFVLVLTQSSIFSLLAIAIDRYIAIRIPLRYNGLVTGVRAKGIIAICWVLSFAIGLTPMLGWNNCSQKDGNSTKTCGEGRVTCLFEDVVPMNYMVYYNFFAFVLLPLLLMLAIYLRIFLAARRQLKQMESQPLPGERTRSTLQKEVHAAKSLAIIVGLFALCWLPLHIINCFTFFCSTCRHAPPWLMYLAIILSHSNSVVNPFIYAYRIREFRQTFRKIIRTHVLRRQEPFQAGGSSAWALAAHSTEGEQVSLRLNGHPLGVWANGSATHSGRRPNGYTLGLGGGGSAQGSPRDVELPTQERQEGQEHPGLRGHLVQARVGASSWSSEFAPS

Dopamine, D4.4 = biological target: T6, Dopamine, D4.4 (Homo sapiens, UniProt P21917); assay: biochemical; format: binding; conditions: read-out: Pass 1 (10^−5 M) % Inhibition
T6 construct: expressed in transfected cells
T6 sequence (P21917 whole entry): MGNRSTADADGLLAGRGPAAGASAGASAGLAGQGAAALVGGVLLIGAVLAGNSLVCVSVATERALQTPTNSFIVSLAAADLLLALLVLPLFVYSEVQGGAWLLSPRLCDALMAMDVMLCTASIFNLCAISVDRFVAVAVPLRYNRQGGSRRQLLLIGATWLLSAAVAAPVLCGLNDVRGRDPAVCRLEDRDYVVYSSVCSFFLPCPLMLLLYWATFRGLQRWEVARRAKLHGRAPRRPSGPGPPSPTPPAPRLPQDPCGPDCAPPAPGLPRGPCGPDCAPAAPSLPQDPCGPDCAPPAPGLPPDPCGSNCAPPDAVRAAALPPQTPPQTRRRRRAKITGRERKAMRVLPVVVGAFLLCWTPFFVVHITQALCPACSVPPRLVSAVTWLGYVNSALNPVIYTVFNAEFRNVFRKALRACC

Sodium, Site 2 = format: binding
Adrenergic, Alpha 1B = Adrenergic, Alpha 1B (UniProt P15823); assay: Adrenergic, Alpha 1B; [3H]-7-MeOxy-Prazosin; format: binding
Adenosine, A1 = Adenosine, A1 (UniProt P25099); assay: Adenosine, A1; [3H]CPX; format: binding; conditions: 10^−5 M
Chain of Adenosine, A1 (P25099 whole entry, looked up): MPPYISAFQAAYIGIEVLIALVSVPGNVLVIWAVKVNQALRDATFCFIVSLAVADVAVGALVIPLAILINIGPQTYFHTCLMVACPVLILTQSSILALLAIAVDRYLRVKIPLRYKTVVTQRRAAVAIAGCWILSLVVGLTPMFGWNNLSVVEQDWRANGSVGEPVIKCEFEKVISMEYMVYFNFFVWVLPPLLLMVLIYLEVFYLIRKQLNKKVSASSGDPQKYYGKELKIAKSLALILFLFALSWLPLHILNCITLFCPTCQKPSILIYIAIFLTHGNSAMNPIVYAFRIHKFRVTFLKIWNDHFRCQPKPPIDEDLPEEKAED

Cannabinoid, CB2 = biological target: T7, Cannabinoid, CB2 (Homo sapiens, UniProt P34972); assay: Cannabinoid, CB2 (Human recombinant); [3H]-CP55940; format: binding; conditions: read-out: Pass 1 (10^−5 M) % Inhibition
T7 construct: expressed in transfected cells

Muscarinic, M4 = biological target: T8, Muscarinic, M4 (Homo sapiens, UniProt P08173); assay: biochemical; format: binding; conditions: read-out: Pass 1 (10^−5 M) % Inhibition
T8 construct: expressed in transfected cells
T8 sequence (P08173 whole entry): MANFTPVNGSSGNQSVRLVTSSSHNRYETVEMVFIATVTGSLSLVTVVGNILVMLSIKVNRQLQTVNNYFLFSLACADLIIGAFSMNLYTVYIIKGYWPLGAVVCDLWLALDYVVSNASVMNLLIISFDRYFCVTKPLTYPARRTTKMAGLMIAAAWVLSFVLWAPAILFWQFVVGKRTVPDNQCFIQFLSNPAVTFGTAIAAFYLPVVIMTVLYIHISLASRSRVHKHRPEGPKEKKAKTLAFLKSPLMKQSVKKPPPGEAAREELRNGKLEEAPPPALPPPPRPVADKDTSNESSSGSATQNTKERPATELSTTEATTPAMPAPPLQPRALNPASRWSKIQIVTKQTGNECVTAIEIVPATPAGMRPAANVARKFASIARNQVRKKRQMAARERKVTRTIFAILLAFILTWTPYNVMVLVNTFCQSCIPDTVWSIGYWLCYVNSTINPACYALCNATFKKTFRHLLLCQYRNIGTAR

Opiate, Mu = biological target: T9, Opiate, Mu (Homo sapiens, UniProt P35372); assay: biochemical; format: binding; conditions: read-out: Pass 1 (10^−5 M) % Inhibition
T9 construct: expressed in transfected cells
T9 sequence (P35372 whole entry): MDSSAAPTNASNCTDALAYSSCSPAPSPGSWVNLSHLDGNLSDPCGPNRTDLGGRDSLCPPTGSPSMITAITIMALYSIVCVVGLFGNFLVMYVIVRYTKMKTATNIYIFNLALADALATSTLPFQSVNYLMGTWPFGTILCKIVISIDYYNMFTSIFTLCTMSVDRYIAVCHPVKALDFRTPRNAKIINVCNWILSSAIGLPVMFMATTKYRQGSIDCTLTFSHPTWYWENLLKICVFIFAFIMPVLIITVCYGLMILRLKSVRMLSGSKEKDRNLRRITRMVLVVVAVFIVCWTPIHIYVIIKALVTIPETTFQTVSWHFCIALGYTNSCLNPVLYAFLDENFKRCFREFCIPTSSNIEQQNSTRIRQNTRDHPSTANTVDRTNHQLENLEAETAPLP

Acetylcholinesterase = assay: Acetylcholinesterase; substrate Acetylthiocholine; format: biochemical
[13] = system: Vasoactive Intestine Peptide, Non-selective; format: binding; conditions: 10^−5 M
Glutamate, Kainate Site = assay: Glutamate, Kainate Site; [3H]Kainic acid; format: binding; conditions: 10^−5 M
[14] = biological target: T10, Platelet Activating Factor, PAF (Oryctolagus cuniculus, UniProt G1TEI7); assay: Platelet Activating Factor, PAF; [3H]Hexadecyl, PAF; format: binding; conditions: read-out: Pass 1 (10^−5 M) % Inhibition
T10 construct: no other source notation after assay name denotes animal cell or animal tissue source; from tissue

SMILES: COC(=O)[C@H]1[C@@H](OC(=O)c2ccccc2)C[C@@H]2CC[C@H]1N2C [cocaine]
- Pass 1 (10^−5 M) % Inhibition (Esterase): 31.58%
- Pass 1 (10^−5 M) % Inhibition [1]: 2.79%
- inhibition at 10 µM (Adrenergic, Alpha 2A): 15.3%
- Pass 1 (10^−5 M) % Inhibition (Opiate, Kappa 1): 10.19%
- inhibition at 10 µM (Muscarinic, M5): 6.01%
- Pass 1 (10^−5 M) % Inhibition [2]: 5.36%
- Pass 1 (10^−5 M) % Inhibition (Imidazoline, I2, central): 37.90%
- Pass 1 (10^−5 M) % Inhibition (Adrenergic, Alpha 1A): −1.18%
- Pass 1 (10^−5 M) % Inhibition [3]: 11.04%
- inhibition at 10 µM (Serotonin Transporter): 96.2%
- Pass 1 (10^−5 M) % Inhibition (Purinergic, P2Y): 16.43%
- Pass 1 (10^−5 M) % Inhibition [4]: 8.25%
- inhibition at 10 µM (Neurotensin): 19.1%
- Pass 1 (10^−5 M) % Inhibition [5]: −1.56%
- Pass 1 (10^−5 M) % Inhibition [6]: 8.40%
- Pass 1 (10^−5 M) % Inhibition [7]: 11.36%
- Pass 1 (10^−5 M) % Inhibition [8]: 16.63%
- inhibition at 10 µM (Serotonin, 5HT1D): 3.12%
- Pass 1 (10^−5 M) % Inhibition [9]: 6.63%
- inhibition at 10 µM (Angiotensin II, ATI): 21.2%
- Pass 1 (10^−5 M) % Inhibition (Neurokinin, NK1): −1.72%
- Pass 1 (10^−5 M) % Inhibition [10]: 11.15%
- inhibition at 10 µM (Thromboxane A2): 22.1%
- Pass 1 (10^−5 M) % Inhibition (Melatonin): 16.13%
- inhibition at 10 µM (Dopamine, D5): 2.44%
- Pass 1 (10^−5 M) % Inhibition [11]: −3.54%
- inhibition at 10 µM [12]: 0.51%
- inhibition at 10 µM (Adenosine Transport (es)): 47.5%
- Pass 1 (10^−5 M) % Inhibition (Glutamate, AMPA Site): −9.30%
- inhibition at 10 µM (Serotonin, 5HT4): 22.1%
- Pass 1 (10^−5 M) % Inhibition (GABA Transport): −19.43%
- Pass 1 (10^−5 M) % Inhibition (Adenosine, A2): 26.30%
- inhibition at 10 µM (Dopamine, D4.4): 18.8%
- Pass 1 (10^−5 M) % Inhibition (Sodium, Site 2): 36.80%
- Pass 1 (10^−5 M) % Inhibition (Adrenergic, Alpha 1B): −6.30%
- Pass 1 (10^−5 M) % Inhibition (Adenosine, A1): 2.29%
- inhibition at 10 µM (Cannabinoid, CB2): 0.78%
- inhibition at 10 µM (Muscarinic, M4): 0.42%
- inhibition at 10 µM (Opiate, Mu): 3.08%
- Pass 1 (10^−5 M) % Inhibition (Acetylcholinesterase): 8.18%
- Pass 1 (10^−5 M) % Inhibition [13]: 30.71%
- Pass 1 (10^−5 M) % Inhibition (Glutamate, Kainate Site): 1.95%
- inhibition at 10 µM [14]: 12.6%
